Results: BindingDB's records for doi:10.1016/j.bmcl.2006.12.028 (Sapienza University of Rome, 2007)

Key:
Histone deacetylase 1 = Histone deacetylase 1 (Mus musculus, UniProt O09106); assay: Inhibition of mouse HDAC1 (mean)
Histone deacetylase 2b = target: T1, Histone deacetylase 2b (Zea mays, UniProt Q94F81); assay: Inhibition of maize HD2 (mean)
T1 sequence (Q94F81 whole entry): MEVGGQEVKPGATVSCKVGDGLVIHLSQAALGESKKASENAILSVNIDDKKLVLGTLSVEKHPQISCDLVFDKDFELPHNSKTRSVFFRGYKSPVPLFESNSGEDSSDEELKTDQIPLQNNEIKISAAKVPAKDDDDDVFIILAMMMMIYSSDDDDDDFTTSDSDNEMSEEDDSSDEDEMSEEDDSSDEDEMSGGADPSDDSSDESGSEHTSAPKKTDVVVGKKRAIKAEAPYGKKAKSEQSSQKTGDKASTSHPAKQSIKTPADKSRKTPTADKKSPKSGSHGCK

Histone deacetylase = Histone deacetylase (Zea mays, UniProt Q9ZTP8); assay: Inhibition of maize HD1-B (mean)
[1] = target: Histone deacetylase HD1-A (Zea mays); assay: Inhibition of maize HD1-A (mean)

Histone deacetylase 1, sequence (O09106 whole entry): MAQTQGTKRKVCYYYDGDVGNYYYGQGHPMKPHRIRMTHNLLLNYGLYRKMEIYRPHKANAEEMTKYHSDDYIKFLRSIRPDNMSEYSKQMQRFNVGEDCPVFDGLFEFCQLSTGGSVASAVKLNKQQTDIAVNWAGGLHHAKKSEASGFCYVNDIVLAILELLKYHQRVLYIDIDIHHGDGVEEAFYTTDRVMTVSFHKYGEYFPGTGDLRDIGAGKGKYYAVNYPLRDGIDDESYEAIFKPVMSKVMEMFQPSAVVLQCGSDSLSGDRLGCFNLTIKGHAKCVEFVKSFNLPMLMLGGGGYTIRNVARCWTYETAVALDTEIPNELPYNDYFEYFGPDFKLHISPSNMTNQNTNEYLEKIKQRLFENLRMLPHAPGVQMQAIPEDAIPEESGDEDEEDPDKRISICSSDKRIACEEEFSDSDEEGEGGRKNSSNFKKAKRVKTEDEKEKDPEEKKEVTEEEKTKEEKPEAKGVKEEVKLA
Histone deacetylase, sequence (Q9ZTP8 whole entry): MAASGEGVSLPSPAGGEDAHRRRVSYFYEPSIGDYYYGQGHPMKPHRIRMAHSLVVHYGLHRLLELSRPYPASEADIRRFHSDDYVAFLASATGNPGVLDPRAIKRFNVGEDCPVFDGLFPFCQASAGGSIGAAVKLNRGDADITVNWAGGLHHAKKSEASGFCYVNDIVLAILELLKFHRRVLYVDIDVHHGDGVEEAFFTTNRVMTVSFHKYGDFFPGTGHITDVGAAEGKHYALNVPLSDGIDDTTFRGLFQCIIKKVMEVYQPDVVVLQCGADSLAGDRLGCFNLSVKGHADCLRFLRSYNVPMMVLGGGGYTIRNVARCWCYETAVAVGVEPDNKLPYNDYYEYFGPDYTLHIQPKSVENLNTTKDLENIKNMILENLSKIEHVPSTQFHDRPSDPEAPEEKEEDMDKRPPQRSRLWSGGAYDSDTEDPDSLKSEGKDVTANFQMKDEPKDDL

| SMILES | IC50 (Histone deacetylase 1) | IC50 (Histone deacetylase 2b) | IC50 (Histone deacetylase) | IC50 [1] |
| --- | --- | --- | --- | --- |
| O=C(CCCCSc1nc(-c2cccc(Cl)c2)cc(=O)[nH]1)NO | 36.7 nM | 17 nM | 11.3 nM |  |
| O=C(CCCCSc1nc(-c2ccc(Cl)cc2)cc(=O)[nH]1)NO | 50.9 nM | 17 nM | 11.3 nM | 2.83 nM |
| O=C(CCCCCCC(=O)Nc1ccccc1)NO [Zolinza] |  | 49.2 nM |  |  |
